Laboratory results: ChEMBL document CHEMBL4814040 (Bioorg Med Chem Lett, 2021)

What was measured:
[1] = target: T1, MAO-A (Homo sapiens, UniProt P21397); assay: Inhibition of MAO-A (unknown origin) at 10 uM relative to control
T1 sequence (P21397 whole entry): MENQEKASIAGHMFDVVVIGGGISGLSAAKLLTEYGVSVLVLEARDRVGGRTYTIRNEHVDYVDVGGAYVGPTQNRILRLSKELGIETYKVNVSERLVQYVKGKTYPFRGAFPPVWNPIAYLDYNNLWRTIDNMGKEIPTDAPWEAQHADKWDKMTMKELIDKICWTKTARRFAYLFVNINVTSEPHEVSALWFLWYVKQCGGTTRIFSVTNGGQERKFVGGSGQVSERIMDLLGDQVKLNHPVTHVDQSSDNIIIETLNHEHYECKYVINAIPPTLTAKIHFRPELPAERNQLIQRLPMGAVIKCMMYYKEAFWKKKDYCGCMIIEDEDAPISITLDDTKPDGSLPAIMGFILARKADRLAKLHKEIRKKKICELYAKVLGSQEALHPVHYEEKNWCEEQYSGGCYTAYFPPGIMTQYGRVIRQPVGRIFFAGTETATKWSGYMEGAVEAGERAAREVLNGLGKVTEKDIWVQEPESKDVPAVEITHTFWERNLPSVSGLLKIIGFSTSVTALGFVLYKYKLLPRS

[2] = target: T2, MAO-B (Homo sapiens, UniProt P27338); assay: Inhibition of MAO-B (unknown origin) at 10 uM relative to control
T2 sequence (P27338 whole entry): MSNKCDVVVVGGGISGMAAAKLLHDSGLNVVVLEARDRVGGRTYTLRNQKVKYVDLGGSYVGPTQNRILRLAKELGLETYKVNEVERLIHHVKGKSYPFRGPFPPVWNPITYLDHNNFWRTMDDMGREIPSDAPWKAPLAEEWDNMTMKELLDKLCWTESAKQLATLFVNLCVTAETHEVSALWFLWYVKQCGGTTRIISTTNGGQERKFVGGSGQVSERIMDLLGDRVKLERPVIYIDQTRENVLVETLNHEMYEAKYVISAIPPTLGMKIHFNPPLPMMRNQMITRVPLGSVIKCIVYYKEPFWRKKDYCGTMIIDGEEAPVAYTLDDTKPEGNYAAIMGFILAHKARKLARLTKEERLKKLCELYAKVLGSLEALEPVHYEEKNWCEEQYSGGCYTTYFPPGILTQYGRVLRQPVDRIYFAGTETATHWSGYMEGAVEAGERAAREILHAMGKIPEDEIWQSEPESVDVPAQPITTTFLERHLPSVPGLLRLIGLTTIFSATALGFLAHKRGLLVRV

[3] = tested on: PC-3; assay: cells; details: Homo sapiens, PC-3, read-out: INH
Description: Antiproliferative activity against human PC-3 cells assessed as cell growth inhibition at 16 uM relative to control

[4] = tested on: MCF7; assay: cells; details: Homo sapiens, MCF7, read-out: INH
Description: Antiproliferative activity against human MCF7 cells assessed as cell growth inhibition at 16 uM relative to control

[5] = tested on: MGC-803; assay: cells; details: Homo sapiens, MGC-803, read-out: INH
Description: Antiproliferative activity against human MGC803 cells assessed as cell growth inhibition at 16 uM relative to control

[6] = tested on: SGC-7901; assay: cells; details: Homo sapiens, SGC-7901, read-out: INH
Description: Antiproliferative activity against human SGC7901 cells assessed as cell growth inhibition at 16 uM relative to control

| inhibition at 10 µM [1] | inhibition at 10 µM [2] | Compound | inhibition at 16 µM [3] | inhibition at 16 µM [4] | inhibition at 16 µM [5] | inhibition at 16 µM [6] |
| --- | --- | --- | --- | --- | --- | --- |
| 90% | 43% | Fc1ccc([C@@H]2C[C@H]2NCc2cn(-c3cccc(C(F)(F)F)c3)nn2)cc1F |  |  |  |  |
| 101% | 86% | FC(F)(F)c1ccc(-n2cc(CN[C@@H]3C[C@H]3c3ccccc3)nn2)cc1 |  |  |  |  |
| 99% | 55% | COc1ccc(-n2cc(CN[C@@H]3C[C@H]3c3ccccc3)nn2)cc1 |  |  |  |  |
| 101% | 82% | Fc1ccc([C@@H]2C[C@H]2NCc2cn(-c3ccc(C(F)(F)F)cc3)nn2)cc1F |  |  |  |  |
| 102% | 65% | COc1cccc(-n2cc(CN[C@@H]3C[C@H]3c3ccc(F)c(F)c3)nn2)c1 |  |  |  |  |
| 89% | 48% | COc1ccc(OC)c(-n2cc(CN[C@@H]3C[C@H]3c3ccc(F)c(F)c3)nn2)c1 | 21.8% | 33.6% | 24.5% | 27.7% |
| 100% | 64% | COc1ccc(-n2cc(CN[C@@H]3C[C@H]3c3ccc(F)c(F)c3)nn2)cc1 | 25.2% | 37.3% | 16.3% | 42% |
| 101% | 94% | FC(F)(F)c1cccc(-n2cc(CN[C@@H]3C[C@H]3c3ccccc3)nn2)c1 |  |  |  |  |
| 102% | 76% | c1ccc([C@@H]2C[C@H]2NCc2cn(-c3ccccc3)nn2)cc1 |  |  |  |  |
| 92% | 88% | FC(F)(F)c1cc(-n2cc(CN[C@@H]3C[C@H]3c3ccccc3)nn2)cc(C(F)(F)F)c1 |  |  |  |  |
| 90% | 51% | COc1ccccc1-n1cc(CN[C@@H]2C[C@H]2c2ccc(F)c(F)c2)nn1 |  |  |  |  |
| 97% | 58% | COc1ccc(OC)c(-n2cc(CN[C@@H]3C[C@H]3c3ccccc3)nn2)c1 |  |  |  |  |
| 93% | 42% | COc1cc(OC)cc(-n2cc(CN[C@@H]3C[C@H]3c3ccc(F)c(F)c3)nn2)c1 |  |  |  |  |
| 91% | 44% | COc1ccccc1-n1cc(CN[C@@H]2C[C@H]2c2ccccc2)nn1 |  |  |  |  |
| 93% | 54% | COc1cccc(-n2cc(CN[C@@H]3C[C@H]3c3ccccc3)nn2)c1 |  |  |  |  |
| 91% | 35% | Fc1ccc([C@@H]2C[C@H]2NCc2cn(-c3cc(C(F)(F)F)cc(C(F)(F)F)c3)nn2)cc1F |  |  |  |  |
| 101% | 67% | COc1cc(OC)cc(-n2cc(CN[C@@H]3C[C@H]3c3ccccc3)nn2)c1 |  |  |  |  |
